Measured values from ChEMBL document CHEMBL1201862, “PubChem BioAssay data set” (2004).
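Step 1: Grow cells in 96-well plates. Step 2: Expose to compound for 48 hours at 5 concentrations. Step 3: Interpolate endpoints linearly; if unreached, use highest concentration. Abbreviation: GI50, concentration required for 50% inhibition of growth.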 Calls of active or inactive are those of the source. No stated cut-off is given here; in the data, active = GI50 up to about 1.1 µM and inactive = higher.

Tests used:
Test in all cases: NCI anticancer screen, dose series, 48 h
M19-MEL = tested on: M19-MEL
UACC-62 = tested on: UACC-62
OVCAR-4 = tested on: OVCAR-4
SK-MEL-2 = tested on: SK-MEL-2
MOLT-4 = tested on: MOLT-4
DMS-273 = tested on: DMS-273
786-0 = tested on: 786-0
HL-60 = tested on: HL-60
HCT-15 = tested on: HCT-15
EKVX = tested on: EKVX
M14 = tested on: M14
SF-268 = tested on: SF-268
A498 = tested on: A498
SNB-75 = tested on: SNB-75
HOP-18 = tested on: HOP-18
LOX IMVI = tested on: LOX IMVI
SR = tested on: SR

Compound | GI50 (M19-MEL) | GI50 (UACC-62) | GI50 (OVCAR-4) | GI50 (SK-MEL-2) | GI50 (MOLT-4) | GI50 (DMS-273) | GI50 (786-0) | GI50 (HL-60) | GI50 (HCT-15) | GI50 (EKVX) | GI50 (M14) | GI50 (SF-268) | GI50 (A498) | GI50 (SNB-75) | GI50 (HOP-18) | GI50 (LOX IMVI) | GI50 (SR)
O=C1c2ccccc2C(=O)c2c(O)c(NCCCNCCO)cc(O)c21 | 13.7 µM (inactive) | 18.7 µM (inactive) | 10.2 µM (inactive) | 18 µM (inactive) | 2.74 µM (inactive) | 4.97 µM (inactive) | 10.5 µM (inactive) | 4.18 µM (inactive) | 5.83 µM | 13.7 µM (inactive) | 16.7 µM (inactive) | 7.91 µM (inactive) | 14.8 µM (inactive) | 12.9 µM (inactive) | 2.41 µM (inactive) | – | –
Cc1cc(O)cc2c1O[C@@]1(C)CCC3[C@@]4(C)CC[C@H](O)C(C)(C)C4CC[C@@]3(C)[C@H]1C2 (some centres undefined) | 11 µM (inactive) | 8.11 µM (inactive) | – | – | 1.55 µM (inactive) | 4.05 µM (inactive) | 2.32 µM (inactive) | 2.99 µM (inactive) | 3.03 µM | 12.6 µM (inactive) | 11.3 µM (inactive) | – | 19.6 µM (inactive) | 3.03 µM (inactive) | 14.7 µM (inactive) | 6.07 µM (inactive) | –
CC(NS(=O)(=O)c1ccc([N+](=O)[O-])cc1)C(=O)O (centres undefined) | – | > 100 µM (inactive) | > 100 µM (inactive) | > 100 µM (inactive) | > 100 µM (inactive) | > 100 µM (inactive) | > 100 µM (inactive) | > 100 µM (inactive) | > 100 µM | > 100 µM (inactive) | > 100 µM (inactive) | > 100 µM (inactive) | > 100 µM (inactive) | 80.7 µM (inactive) | > 100 µM (inactive) | > 100 µM (inactive) | –
COc1ccc(/C=C/c2cc(OC)c(OC)c(OC)c2)cc1OC | – | > 80.7 µM (inactive) | > 100 µM (inactive) | > 100 µM (inactive) | > 100 µM (inactive) | > 82.2 µM (inactive) | > 76.9 µM (inactive) | > 70.3 µM (inactive) | > 56.2 µM | > 100 µM (inactive) | > 100 µM (inactive) | > 67.9 µM (inactive) | > 74.1 µM (inactive) | > 44.3 µM (inactive) | > 100 µM (inactive) | > 100 µM (inactive) | > 100 µM (inactive)
CCCCCC(=O)C(C)C1=Nc2nnc(CCCCCCCc3nnc4n3C(=O)C(C(C)C(=O)CCCCC)=N4)n2C1=O (centres undefined) | > 100 µM (inactive) | > 100 µM (inactive) | > 100 µM (inactive) | – | > 100 µM (inactive) | – | > 100 µM (inactive) | > 100 µM (inactive) | > 100 µM | > 100 µM (inactive) | > 100 µM (inactive) | > 100 µM (inactive) | – | > 100 µM (inactive) | > 100 µM (inactive) | > 100 µM (inactive) | > 100 µM (inactive)
CCOC(=O)c1[nH]c2c(OC)n[n+]([O-])cc2c1[N+](=O)[O-] | 24.8 µM (inactive) | 19.5 µM (inactive) | 19.8 µM (inactive) | 19.8 µM (inactive) | 31.9 µM (inactive) | – | 16.4 µM (inactive) | 19.7 µM (inactive) | 18.4 µM | 21.3 µM (inactive) | 19.9 µM (inactive) | 32 µM (inactive) | 21.8 µM (inactive) | 9.23 µM (inactive) | 20.5 µM (inactive) | 16.4 µM (inactive) | –
C[C@H]1C(=O)CC[C@]2(C)CCC(C(C)(C)O)CC12O (some centres undefined) | – | > 100 µM (inactive) | > 100 µM (inactive) | > 100 µM (inactive) | > 100 µM (inactive) | > 100 µM (inactive) | > 100 µM (inactive) | > 100 µM (inactive) | > 100 µM | > 100 µM (inactive) | > 100 µM (inactive) | > 100 µM (inactive) | > 100 µM (inactive) | 12.8 µM (inactive) | > 100 µM (inactive) | > 100 µM (inactive) | > 100 µM (inactive)
